In publication PMC6222706, “Evaluation of the Antioxidant and Neuroprotectant Activities of New Asymmetrical 1,3-Diketones” (Molecules : A Journal of Synthetic Chemistry and Natural …, 2018):

Legend:
SH-SY5Y cells [1] = test: SH-SY5Y neuroprotection assay against H2O2 (MTT); format: cell-based, human; conditions: compound 5-50 µM for 24 h, then 200 µM H2O2 for 24 h
Procedure: For neuroprotection experiments, SH-SY5Y cells were treated with test compound at different concentrations (5, 10, 20, 30, 40, and 50 µM) for 24 h. After the incubation period, cells were exposed to H2O2 200 µM for 24 h. At the end of the treatment, cell viability was measure with MTT.
Compound neuroprotection under H2O2-induced oxidative stress was assessed by MTT assay. Briefly, SH-SY5Y were seeded into 96-well plates at a density of 3 × 10^3 cells/well and grown in the incubator for 24 h. Cells were pretreated for 24 h with different compound concentrations (5, 10, 20, 30, 40, 50 µM). After the treatment period, cells were exposed to 200 µM H2O2 for 24 h. Cell viability was measured with MTT following the same procedure described above. Cell viability was expressed as the percentage of the control value (cells without treatment with H2O2).

SH-SY5Y cells [2] = test: Mitochondrial membrane potential by flow cytometry (JC-1) in SH-SY5Y cells under H2O2; format: cell-based, human; conditions: 7b for 24 h, then 400 µM H2O2 for 4 h, JC-1 flow cytometry
Procedure: To confirm this MMP recovery results, flow cytometry experiments were carried out with compound 7b and SH-SY5Y cells. Cells were treated with 7b for 24 h and then were exposed to 400 µM H2O2 for 4 h. JC-1 was used as fluorescence indicator of MMP state. In flow cytometry studies of MMP, JC-1 is excited at 488 nm wavelength. Both JC-1 aggregates and monomers show green fluorescence (peak emission at 527 nm) measured in the FL1 channel. […] Thus, healthy non-apoptotic cells are detected in both FL1 and FL2 channels, while cells with disrupted mitochondrial function show fluorescence in FL1 channel but reduced FL2 intensity. […] From these flow cytometry experiments, we can confirm that after compound 7b treatment there is a significant MMP recovery in SH-SY5Y cells under oxidative stress pressure.
For MMP flow cytometry studies, 10^5 SH-SY5Y cells were seeded in 6 well plates. After 24 h, cells were treated with test compound and incubated for other 24 h. After the treatment period, cells were exposed to H2O2 for 4 h. Then, cells were washed twice with Hanks buffer and stained with 5 µM JC-1 in culture media in dark, in a CO2 incubator at 37 °C for 20 min. After the staining period, cells were washed three times with Hanks buffer, collected and resuspended in 500 µL culture media. Data were obtained and analyzed using an Accuri C6 flow cytometer (BD Biosciences, Ann Arbour, MI, USA). […]

Row | SMILES | Cell viability after H2O2 (neuroprotection) (SH-SY5Y cells [1]) | FLA-1/FLA-2 ratio (SH-SY5Y cells [2])
1 | O=C(/C=C(O)/C=C/c1cc(F)c(O)cc1F)C(F)(F)F [Compound 6b, (3Z,5E)-6-(2,5-difluoro-4-hydroxyphenyl)-1,1,1-trifluoro-4-hydroxyhexa-3,5-dien-2-one] | significantly improved | –
2 | O=C(/C=C(O)/C=C/c1ccc(O)c(F)c1F)C(F)(F)F [Compound 7b, (3Z,5E)-6-(2,3-Difluoro-4-hydroxyphenyl)-1,1,1-trifluoro-4-hydroxyhexa-3,5-dien-2-one] | significantly improved | significant reduction of that ratio
